Assay results from patent publication US20260297080A1, “BICYCLIC COMPOUNDS AS CDK INHIBITORS” (BeOne Medicines I GmbH, priority 2022, published 2026).

Assays:
[1] = target: CDK1/Cyclin B1 (Homo sapiens, UniProt P06493); test: CDK1/Cyclin B1 Biochemical Assay (TR-FRET), 0.015 mM ATP; conditions: 0.15 μM Rb (Ser780)-biotin substrate, pH7.0, 60 min preincubation, 120 min reaction, room temperature
Outline: (§1)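 Inhibitor concentrations up to 10 μM were preincubated with each cyclin–kinase complex for 60 minutes before ATP and biotinylated Rb (Ser780) substrate (0.15 μM) were added. After 120 minutes at room temperature, phosphorylation was quantified by HTRF and IC50 values were fitted with a four-parameter logistic equation.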

[2] = target: CDK2/Cyclin E1 (Homo sapiens, UniProt P24941); test: CDK2/Cyclin E1 Biochemical Assay (TR-FRET), 0.060 mM ATP; conditions: 0.15 μM Rb (Ser780)-biotin substrate, pH7.0, 60 min preincubation, 120 min reaction, room temperature
Outline: as §1

Sequence of CDK1/Cyclin B1 (P06493 whole entry): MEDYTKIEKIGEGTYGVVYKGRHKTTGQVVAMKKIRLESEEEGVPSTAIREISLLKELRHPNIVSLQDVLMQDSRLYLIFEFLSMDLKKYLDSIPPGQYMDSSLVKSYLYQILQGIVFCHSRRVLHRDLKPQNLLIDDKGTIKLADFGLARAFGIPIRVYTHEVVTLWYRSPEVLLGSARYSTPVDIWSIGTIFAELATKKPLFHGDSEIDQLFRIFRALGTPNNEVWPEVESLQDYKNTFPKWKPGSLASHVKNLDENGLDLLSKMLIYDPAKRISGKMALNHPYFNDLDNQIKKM
Sequence of CDK1/Cyclin B1 (P14635 whole entry partner): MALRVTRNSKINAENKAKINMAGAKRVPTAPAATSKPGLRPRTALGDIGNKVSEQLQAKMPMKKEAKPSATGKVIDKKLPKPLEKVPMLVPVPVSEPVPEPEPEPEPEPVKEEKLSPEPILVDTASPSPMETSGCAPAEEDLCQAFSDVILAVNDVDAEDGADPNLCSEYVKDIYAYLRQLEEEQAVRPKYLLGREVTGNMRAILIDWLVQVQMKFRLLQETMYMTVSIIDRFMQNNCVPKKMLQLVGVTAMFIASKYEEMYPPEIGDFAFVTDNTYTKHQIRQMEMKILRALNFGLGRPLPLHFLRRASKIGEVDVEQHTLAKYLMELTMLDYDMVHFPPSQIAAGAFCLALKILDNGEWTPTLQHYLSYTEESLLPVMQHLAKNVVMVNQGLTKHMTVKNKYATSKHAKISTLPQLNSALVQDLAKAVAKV

SMILES | IC50 [1] | IC50 [2]
CCCNC(=O)O[C@@H]1CC[C@H](c2cc(Nc3ccc4c(c3F)CNS4(=O)=O)n[nH]2)C1 (single isomer, unassigned) [Example 138a] | 237 nM | 2.6 nM
CC(C)NC(=O)O[C@H]1CC[C@@H](c2cc(Nc3ccc4c(c3F)CS(=O)(=O)N4C3CC3)n[nH]2)C1 (single isomer, unassigned) [Example 275a, cis-3-(3-((1-cyclopropyl-4-fluoro-2,2-dioxido-1,3-dihydrobenzo[c]isothiazol-5-yl)amino)-1H-pyrazol-5-yl)cyclopentyl isopropylcarbamate] | 398 nM | 8.4 nM
Cc1cc2c(cc1Nc1cc([C@@H]3CC[C@H](OC(=O)NC(C)C)C3)[nH]n1)CNS2(=O)=O (relative stereo) [Example 25, cis-3-(3-((6-methyl-1,1-dioxido-2,3-dihydrobenzo[d]isothiazol-5-yl)amino)-1H-pyrazol-5-yl)cyclopentyl isopropylcarbamate] | 271 nM | 11 nM
Cc1cc(Nc2cc([C@@H]3CC[C@H](OC(=O)NC(C)C)C3)[nH]n2)cc2c1N(C)S(=O)(=O)C2 (relative stereo) [Example 245, cis-3-(3-((1,7-dimethyl-2,2-dioxido-1,3-dihydrobenzo[c]isothiazol-5-yl)amino)-1H-pyrazol-5-yl)cyclopentyl isopropylcarbamate] | 941 nM | 44 nM
CC(C)(CO)NC(=O)O[C@H]1CC[C@@H](c2cc(Nc3ccc4c(c3F)CNS4(=O)=O)n[nH]2)C1 (relative stereo) [Example 329, cis-3-(3-((4-fluoro-1,1-dioxido-2,3-dihydrobenzo[d]isothiazol-5-yl)amino)-1H-pyrazol-5-yl)cyclopentyl(1-hydroxy-2-methylpropan-2-yl)carbamate] | 175 nM | 2.7 nM
CC(C)NC(=O)O[C@H]1CC[C@@H](c2cc(Nc3cc(F)c4c(c3)NS(=O)(=O)C4)n[nH]2)C1 (relative stereo) [Example 311, cis-3-(3-((4-fluoro-2,2-dioxido-1,3-dihydrobenzo[c]isothiazol-6-yl)amino)-1H-pyrazol-5-yl)cyclopentyl isopropylcarbamate] | 158 nM | 6 nM
CC1(NC(=O)O[C@H]2CC[C@@H](c3cc(Nc4ccc5c(c4F)CNS5(=O)=O)n[nH]3)C2)COC1 (racemic) [Example 164, cis-3-(3-((4-fluoro-1,1-dioxido-2,3-dihydrobenzo[d]isothiazol-5-yl)amino)-1H-pyrazol-5-yl)cyclopentyl(3-methyloxetan-3-yl)carbamate] | 294 nM | 5 nM
COCC1(NC(=O)O[C@H]2CC[C@@H](c3cc(Nc4ccc5c(c4F)CNS5(=O)=O)n[nH]3)C2)CC1 (single isomer, unassigned) [Example 158b, cis-3-(3-((4-fluoro-1,1-dioxido-2,3-dihydrobenzo[d]isothiazol-5-yl)amino)-1H-pyrazol-5-yl)cyclopentyl(1-(methoxymethyl)cyclopropyl)carbamate] | 248 nM | 3.3 nM
O=C(O[C@H]1CC[C@@H](c2cc(Nc3ccc4c(c3F)CNS4(=O)=O)n[nH]2)C1)N1CCOCC1 (relative stereo) [Example 373, cis-3-(3-((4-fluoro-1,1-dioxido-2,3-dihydrobenzo[d]isothiazol-5-yl)amino)-1H-pyrazol-5-yl)cyclopentyl morpholine-4-carboxylate] | 1380 nM | 45 nM
CN1c2ccc(Nc3cc([C@@H]4CC[C@H](OC(=O)NC(C)(C)CO)C4)[nH]n3)c(F)c2CS1(=O)=O (single isomer, unassigned) [Example 327a, cis-3-(3-((4-fluoro-1-methyl-2,2-dioxido-1,3-dihydrobenzo[c]isothiazol-5-yl)amino)-1H-pyrazol-5-yl)cyclopentyl(1-hydroxy-2-methylpropan-2-yl)carbamate] | 143 nM | 1.5 nM

Continued, values first:

IC50 [1] | IC50 [2] | SMILES
17 nM | 0.9 nM | CC(C)NC(=O)O[C@H]1CC[C@@H](c2cc(Nc3ccc4c(c3)CS(=O)(=O)N4)n[nH]2)C1 (single isomer, unassigned) [Example 7b]
13 nM | 0.7 nM | COCC(C)(C)NC(=O)O[C@H]1CC[C@@H](c2cc(Nc3ccc4c(c3)CS(=O)(=O)N4C)n[nH]2)C1 (relative stereo) [Example 369, cis-3-(3-((1-methyl-2,2-dioxido-1,3-dihydrobenzo[c]isothiazol-5-yl)amino)-1H-pyrazol-5-yl)cyclopentyl(1-methoxy-2-methylpropan-2-yl)carbamate]
44 nM | 1.6 nM | CC(C)NC(=O)O[C@H]1CC[C@@H](c2cc(Nc3ccc4c(c3F)S(=O)(=O)CC4)n[nH]2)C1 (relative stereo) [Example 314, cis-3-(3-((7-fluoro-1,1-dioxido-2,3-dihydrobenzo[b]thiophen-6-yl)amino)-1H-pyrazol-5-yl)cyclopentyl isopropylcarbamate]
> 10000 nM | 931 nM | CC(C)NC(=O)O[C@H]1CC[C@@H](c2cc(Nc3cc4c(cc3C(F)(F)F)S(=O)(=O)NC4)n[nH]2)C1 (relative stereo) [Example 20, cis-3-(3-((1,1-dioxido-6-(trifluoromethyl)-2,3-dihydrobenzo[d]isothiazol-5-yl)amino)-1H-pyrazol-5-yl)cyclopentyl isopropylcarbamate]
70 nM | 1.6 nM | O=C(NC1CCC1)O[C@H]1CC[C@@H](c2cc(Nc3ccc4c(c3)CS(=O)(=O)N4)n[nH]2)C1 (single isomer, unassigned) [Example 380a, cis-3-(3-((2,2-dioxido-1,3-dihydrobenzo[c]isothiazol-5-yl)amino)-1H-pyrazol-5-yl)cyclopentyl cyclobutylcarbamate]
33 nM | 1.3 nM | CC1(NC(=O)O[C@H]2CC[C@@H](c3cc(Nc4ccc5c(c4F)CS(=O)(=O)N5C4COC4)n[nH]3)C2)CC1 (relative stereo) [Example 262, cis-3-(3-((4-fluoro-1-(oxetan-3-yl)-2,2-dioxido-1,3-dihydrobenzo[c]isothiazol-5-yl)amino)-1H-pyrazol-5-yl)cyclopentyl(1-methylcyclopropyl)carbamate]
156 nM | 3.5 nM | CN1c2ccc(Nc3cc([C@@H]4CC[C@H](OC(=O)NC5CCC5)C4)[nH]n3)cc2CS1(=O)=O (single isomer, unassigned) [Example 227a, cis-3-(3-((1-methyl-2,2-dioxido-1,3-dihydrobenzo[c]isothiazol-5-yl)amino)-1H-pyrazol-5-yl)cyclopentyl cyclobutylcarbamate]
146 nM | 15.5 nM | CCCNC(=O)O[C@H]1CC[C@@H](c2cc(Nc3ccc4c(c3F)CS(=O)(=O)N4CCO)n[nH]2)C1 (single isomer, unassigned) [Example 272a, cis-3-(3-((4-fluoro-1-(2-hydroxyethyl)-2,2-dioxido-1,3-dihydrobenzo[c]isothiazol-5-yl)amino)-1H-pyrazol-5-yl)cyclopentyl propylcarbamate]
1910 nM | 20 nM | CC(C)NC(=O)O[C@H]1CC[C@@H](c2cc(Nc3ccc4c(c3F)CN(C[C@@H](N)C(C)(C)C)S4(=O)=O)n[nH]2)C1 (relative stereo) [Example 98, cis-3-(3-((2-((S)-2-amino-3,3-dimethylbutyl)-4-fluoro-1,1-dioxido-2,3-dihydrobenzo[d]isothiazol-5-yl)amino)-1H-pyrazol-5-yl)cyclopentyl isopropylcarbamate]
279 nM | 13 nM | CC(C)NC(=O)O[C@H]1CC[C@@H](c2cc(Nc3ccc4c(c3Cl)CNS4(=O)=O)n[nH]2)C1 (single isomer, unassigned) [Example 38b, cis-3-(3-((4-chloro-1,1-dioxido-2,3-dihydrobenzo[d]isothiazol-5-yl)amino)-1H-pyrazol-5-yl)cyclopentyl isopropylcarbamate]
56 nM | 1.3 nM | CC[C@H](C)NC(=O)O[C@H]1CC[C@@H](c2cc(Nc3ccc4c(c3F)CS(=O)(=O)N4C3CC3)n[nH]2)C1 (relative stereo) [Example 278, cis-3-(3-((1-cyclopropyl-4-fluoro-2,2-dioxido-1,3-dihydrobenzo[c]isothiazol-5-yl)amino)-1H-pyrazol-5-yl)cyclopentyl((S)-sec-butyl)carbamate]
455 nM | 12 nM | CCCNC(=O)O[C@H]1CC[C@@H](c2cc(Nc3ccc4c(c3F)CN(C)S4(=O)=O)n[nH]2)C1 (single isomer, unassigned) [Example 122a, cis-3-(3-((4-fluoro-2-methyl-1,1-dioxido-2,3-dihydrobenzo[d]isothiazol-5-yl)amino)-1H-pyrazol-5-yl)cyclopentyl propylcarbamate]
183 nM | 10 nM | CC(C)NC(=O)O[C@H]1CC[C@@H](c2cc(Nc3ccc4c(c3)CC(=O)NS4(=O)=O)n[nH]2)C1 (relative stereo) [Example 171, cis-3-(3-((1,1-dioxido-3-oxo-3,4-dihydro-2H-benzo[e][1,2]thiazin-6-yl)amino)-1H-pyrazol-5-yl)cyclopentyl isopropylcarbamate]
262 nM | 16 nM | CC(C)NC(=O)O[C@H]1CC[C@@H](c2cc(Nc3ccc4c(c3)CS(=O)(=O)N4C(C)C3COC3)n[nH]2)C1 (relative stereo) [Example 208, cis-3-(3-((1-(1-(oxetan-3-yl)ethyl)-2,2-dioxido-1,3-dihydrobenzo[c]isothiazol-5-yl)amino)-1H-pyrazol-5-yl)cyclopentyl isopropylcarbamate]
